# [ ]: non-standard residue; d: D form. Aib = CC(C)(N)C(=O)O
# Experiments:
# primary human T-cells = assay: Cytokine secretion on protein level in activated primary human T-cells (13-plex FACS / Luminex, supernatant); assay type: cell-based; settings: 10^−9M
# Outline: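 Primary T-cells from peripheral blood of healthy volunteers, or HaCaT cells, were activated with PMA/Ionomycin or IFN-γ for 48 h and treated with tripeptides. Supernatants were collected 48 h and 72 h after stimulation and cytokines (IL-1, IL-2, IL-6, IL-12p70, IL-17, IFN-γ, TNF-α) were measured by 13-plex FACS.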
# [1] = test system: human keratinocyte cell line (HaCaT); assay: Cytokine secretion on protein level in activated human keratinocyte cell line HaCaT (13-plex FACS / Luminex, supernatant); assay type: cell-based; settings: for IL-1 cytokine concentration / IL-2 cytokine concentration / IL-4 cytokine concentration / IL-5 cytokine concentration / IL-6 cytokine concentration / IL-9 cytokine concentration / IL-10 cytokine concentration / IL-13 cytokine concentration / IL-17 cytokine concentration / TNF-α cytokine concentration / IL-12p70 cytokine concentration / IL-22 cytokine concentration / IFN-γ cytokine concentration: 10^−9M; for IL-12p70 cytokine concentration / IL-22 cytokine concentration: excluded from the final assessment
# Outline: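 Cytokine protein in supernatant is read by multiplex FACS or Luminex. Tripeptide-treated HaCaT cells or blood-derived human T-cells are stimulated beforehand with PMA/Ionomycin or IFN-γ. The most relevant analytes are IL-1, IL-2, IL-6, IL-12p70, IL-17, IFN-γ and TNF-α, sampled 48 h and 72 h after stimulation.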
# primary murine T-cells = assay: Cytokine secretion on protein level in activated primary murine T-cells (13-plex FACS / Luminex, supernatant); assay type: cell-based, C57BL/6 mice; settings: 10^−9M
# Outline: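 T-cells from secondary lymphatic organs of naïve C57BL/6 mice, stimulated with PMA/Ionomycin or IFN-γ; supernatant cytokines measured by 13-plex FACS 48 h and 72 h after stimulation. In another run, PMA/Ionomycin-stimulated cells received compounds at 10^−7, 10^−9 and 10^−11 M, with IFN-γ, IL-17 and IL-10 measured by Luminex.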
# [2] = primary human T-cells stimulated with IFN-γ
# [3] = primary human T-cells stimulated with PBS
# [4] = primary human T-cells stimulated with PMA/Ionomycin
# [5] = HaCaT stimulated with PMA/Ionomycin
# [6] = primary murine T-cells stimulated with IFN-γ
# [7] = primary murine T-cells stimulated with PBS
# [8] = primary murine T-cells stimulated with PMA/Ionomycin
# [9] = primary murine T-cells stimulated with PMA/Ionomycin, 1:10 dilution of the supernatants
substance,measurement,setting,value
H-Lys-[dP]-[Aib]-OH [Example 1],IL-1 cytokine concentration,primary human T-cells; [2],296.42 pg/mL
same,IL-2 cytokine concentration,primary human T-cells; [2],515.89 pg/mL
same,IL-4 cytokine concentration,primary human T-cells; [2],180.24 pg/mL
same,IL-5 cytokine concentration,primary human T-cells; [2],112.65 pg/mL
same,IL-6 cytokine concentration,primary human T-cells; [2],131.33 pg/mL
same,IL-9 cytokine concentration,primary human T-cells; [2],111.14 pg/mL
same,IL-10 cytokine concentration,primary human T-cells; [2],164.32 pg/mL
same,IL-12p70 cytokine concentration,primary human T-cells; [2],945.16 pg/mL
same,IL-13 cytokine concentration,primary human T-cells; [2],82.57 pg/mL
same,IL-17 cytokine concentration,primary human T-cells; [2],234.65 pg/mL
same,IL-22 cytokine concentration,primary human T-cells; [2],21389.5 pg/mL
same,TNF-α cytokine concentration,primary human T-cells; [2],230.57 pg/mL
same,IFN-γ cytokine concentration,primary human T-cells; [3],634.2 pg/mL
same,IL-1 cytokine concentration,primary human T-cells; [3],398.01 pg/mL
same,IL-2 cytokine concentration,primary human T-cells; [3],545.22 pg/mL
same,IL-4 cytokine concentration,primary human T-cells; [3],198.06 pg/mL
same,IL-5 cytokine concentration,primary human T-cells; [3],275.55 pg/mL
same,IL-6 cytokine concentration,primary human T-cells; [3],85.95 pg/mL
same,IL-9 cytokine concentration,primary human T-cells; [3],131.69 pg/mL
same,IL-10 cytokine concentration,primary human T-cells; [3],107.07 pg/mL
same,IL-12p70 cytokine concentration,primary human T-cells; [3],223.67 pg/mL
same,IL-13 cytokine concentration,primary human T-cells; [3],77.6 pg/mL
same,IL-17 cytokine concentration,primary human T-cells; [3],295.13 pg/mL
same,IL-22 cytokine concentration,primary human T-cells; [3],2227.62 pg/mL
same,TNF-α cytokine concentration,primary human T-cells; [3],203.95 pg/mL
same,IFN-γ cytokine concentration,primary human T-cells; [4],2516.08 pg/mL
same,IL-1 cytokine concentration,primary human T-cells; [4],11244.1 pg/mL
same,IL-2 cytokine concentration,primary human T-cells; [4],12000 pg/mL
same,IL-4 cytokine concentration,primary human T-cells; [4],209.61 pg/mL
same,IL-5 cytokine concentration,primary human T-cells; [4],204.84 pg/mL
same,IL-6 cytokine concentration,primary human T-cells; [4],1868.8 pg/mL
same,IL-9 cytokine concentration,primary human T-cells; [4],159.86 pg/mL
same,IL-10 cytokine concentration,primary human T-cells; [4],3032.66 pg/mL
same,IL-12p70 cytokine concentration,primary human T-cells; [4],925.71 pg/mL
same,IL-13 cytokine concentration,primary human T-cells; [4],398.98 pg/mL
same,IL-17 cytokine concentration,primary human T-cells; [4],2443.34 pg/mL
same,IL-22 cytokine concentration,primary human T-cells; [4],24324.9 pg/mL
same,TNF-α cytokine concentration,primary human T-cells; [4],3600 pg/mL
same,IL-1 cytokine concentration,[1]; HaCaT stimulated with IFN-γ,251.36 pg/mL
same,IL-2 cytokine concentration,[1]; HaCaT stimulated with IFN-γ,95.81 pg/mL
same,IL-4 cytokine concentration,[1]; HaCaT stimulated with IFN-γ,88.93 pg/mL
same,IL-5 cytokine concentration,[1]; HaCaT stimulated with IFN-γ,156.74 pg/mL
same,IL-6 cytokine concentration,[1]; HaCaT stimulated with IFN-γ,704.01 pg/mL
same,IL-9 cytokine concentration,[1]; HaCaT stimulated with IFN-γ,96.1 pg/mL
same,IL-10 cytokine concentration,[1]; HaCaT stimulated with IFN-γ,107.72 pg/mL
same,IL-13 cytokine concentration,[1]; HaCaT stimulated with IFN-γ,57.99 pg/mL
same,IL-17 cytokine concentration,[1]; HaCaT stimulated with IFN-γ,612.41 pg/mL
same,TNF-α cytokine concentration,[1]; HaCaT stimulated with IFN-γ,101.29 pg/mL
same,IL-12p70 cytokine concentration,[1]; HaCaT stimulated with IFN-γ,1872.11 pg/mL
same,IL-22 cytokine concentration,[1]; HaCaT stimulated with IFN-γ,18014.5 pg/mL
same,IFN-γ cytokine concentration,[1]; HaCaT stimulated with PBS,373.53 pg/mL
same,IL-1 cytokine concentration,[1]; HaCaT stimulated with PBS,224.9 pg/mL
same,IL-2 cytokine concentration,[1]; HaCaT stimulated with PBS,87.98 pg/mL
same,IL-4 cytokine concentration,[1]; HaCaT stimulated with PBS,85.92 pg/mL
same,IL-5 cytokine concentration,[1]; HaCaT stimulated with PBS,181.61 pg/mL
same,IL-6 cytokine concentration,[1]; HaCaT stimulated with PBS,77.53 pg/mL
same,IL-9 cytokine concentration,[1]; HaCaT stimulated with PBS,112.82 pg/mL
same,IL-10 cytokine concentration,[1]; HaCaT stimulated with PBS,166.47 pg/mL
same,IL-13 cytokine concentration,[1]; HaCaT stimulated with PBS,64.17 pg/mL
same,IL-17 cytokine concentration,[1]; HaCaT stimulated with PBS,562.61 pg/mL
same,TNF-α cytokine concentration,[1]; HaCaT stimulated with PBS,87.84 pg/mL
same,IL-12p70 cytokine concentration,[1]; HaCaT stimulated with PBS,1881.61 pg/mL
same,IL-22 cytokine concentration,[1]; HaCaT stimulated with PBS,18087.5 pg/mL
same,IFN-γ cytokine concentration,[1]; [5],531 pg/mL
same,IL-1 cytokine concentration,[1]; [5],118.79 pg/mL
same,IL-2 cytokine concentration,[1]; [5],184.58 pg/mL
same,IL-4 cytokine concentration,[1]; [5],78.12 pg/mL
same,IL-5 cytokine concentration,[1]; [5],141.02 pg/mL
same,IL-6 cytokine concentration,[1]; [5],131.98 pg/mL
same,IL-9 cytokine concentration,[1]; [5],108.97 pg/mL
same,IL-10 cytokine concentration,[1]; [5],48.13 pg/mL
same,IL-13 cytokine concentration,[1]; [5],49.03 pg/mL
same,IL-17 cytokine concentration,[1]; [5],449.68 pg/mL
same,TNF-α cytokine concentration,[1]; [5],77.12 pg/mL
same,IL-12p70 cytokine concentration,[1]; [5],0 pg/mL
same,IL-22 cytokine concentration,[1]; [5],8956.12 pg/mL
same,secretion / expression of pro-inflammatory cytokines (supernatant),[1]; activated human keratinocytes,decreased secretion
same,IL-1 cytokine concentration,primary murine T-cells; [6],0 pg/mL
same,IL-2 cytokine concentration,primary murine T-cells; [6],0 pg/mL
same,IL-4 cytokine concentration,primary murine T-cells; [6],0 pg/mL
same,IL-5 cytokine concentration,primary murine T-cells; [6],0 pg/mL
same,IL-6 cytokine concentration,primary murine T-cells; [6],6.51 pg/mL
same,IL-10 cytokine concentration,primary murine T-cells; [6],0 pg/mL
same,IL-13 cytokine concentration,primary murine T-cells; [6],0 pg/mL
same,IL-17 cytokine concentration,primary murine T-cells; [6],10.81 pg/mL
same,IL-21 cytokine concentration,primary murine T-cells; [6],0 pg/mL
same,IL-22 cytokine concentration,primary murine T-cells; [6],0 pg/mL
same,IL-27 cytokine concentration,primary murine T-cells; [6],179.72 pg/mL
same,TNF-α cytokine concentration,primary murine T-cells; [6],0 pg/mL
same,IFN-γ cytokine concentration,primary murine T-cells; [7],0 pg/mL
same,IL-1 cytokine concentration,primary murine T-cells; [7],53.09 pg/mL
same,IL-2 cytokine concentration,primary murine T-cells; [7],0 pg/mL
same,IL-4 cytokine concentration,primary murine T-cells; [7],0 pg/mL
same,IL-5 cytokine concentration,primary murine T-cells; [7],0 pg/mL
same,IL-6 cytokine concentration,primary murine T-cells; [7],0 pg/mL
same,IL-10 cytokine concentration,primary murine T-cells; [7],110.76 pg/mL
same,IL-13 cytokine concentration,primary murine T-cells; [7],0 pg/mL
same,IL-17 cytokine concentration,primary murine T-cells; [7],0 pg/mL
same,IL-21 cytokine concentration,primary murine T-cells; [7],0 pg/mL
same,IL-22 cytokine concentration,primary murine T-cells; [7],0 pg/mL
same,IL-27 cytokine concentration,primary murine T-cells; [7],379.78 pg/mL
same,TNF-α cytokine concentration,primary murine T-cells; [7],0 pg/mL
same,IL-1 cytokine concentration,primary murine T-cells; [8],60.61 pg/mL
same,IL-4 cytokine concentration,primary murine T-cells; [8],0 pg/mL
same,IL-5 cytokine concentration,primary murine T-cells; [8],292.17 pg/mL
same,IL-6 cytokine concentration,primary murine T-cells; [8],239.47 pg/mL
same,IL-10 cytokine concentration,primary murine T-cells; [8],145.26 pg/mL
same,IL-13 cytokine concentration,primary murine T-cells; [8],3898.42 pg/mL
same,IL-17 cytokine concentration,primary murine T-cells; [8],459.99 pg/mL
same,IL-21 cytokine concentration,primary murine T-cells; [8],0 pg/mL
same,IL-22 cytokine concentration,primary murine T-cells; [8],526.42 pg/mL
same,IL-27 cytokine concentration,primary murine T-cells; [8],426.79 pg/mL
same,TNF-α cytokine concentration,primary murine T-cells; [8],535.51 pg/mL
same,IFN-γ* cytokine concentration,primary murine T-cells; [9],0 pg/mL
same,IL-2* cytokine concentration,primary murine T-cells; [9],1354.76 pg/mL
